Assays:
[1] = molecular target: human Janus kinase 1 (JAK1), recombinant catalytic domain (Homo sapiens (Human), UniProt P23458); experiment: LanthaScreen TR-FRET enzymatic assay, JAK1; type: biochemical; details: 1 mM ATP, GFP-STAT1 substrate, read-out: Inhibitory Activity IC50 JAK1
Description: (§1) The in vitro inhibition of recombinant human JAKs was determined as follow.
(§2) Compounds were tested in LANTHASCREEN™ time-resolved fluorescence energy transfer (TR-FRET) enzymatic assays from Invitrogen. The human Janus kinase 1 (JAK1) used in the assay is the recombinant JAK1 catalytic domain (amino acids 866-1154) expressed and purified from insect cells (Invitrogen, Cat. No. PV4774). The human Janus kinase 2 (JAK2) used in the assay is the recombinant JAK2 catalytic domain (amino acids 808-1132) expressed and purified from insect cells (Invitrogen, Cat. No. PV4210). The human Janus kinase 3 (JAK3) used in the assay is the recombinant JAK3 catalytic domain (amino acids 781-1124) expressed and purified from insect cells (Invitrogen, Cat. No. PV3855). The human tyrosine kinase 2 (TYK2) used in the assay is the recombinant TYK2 catalytic domain (amino acids 833-1187) expressed and purified from insect cells (Invitrogen, Cat. No. PV4790). The substrate is a recombinant STAT1 expressed as a fusion with GFP (Green Fluorescent Protein) to act as a physiological substrate (Invitrogen, Cat. No. PV5211).
(§3) Test compounds were prepared and diluted in DMSO in 3-fold serial dilutions for 10 doses to 100× of the final testing concentrations. The compounds were then further diluted to 4× by the kinase reaction buffer (Invitrogen, Cat. No. PV3189). The enzymatic reaction for compound testing was performed in a white 384-well polypropylene plate (Packard, Cat. No. 6005214) with a total reaction volume of 10 μL containing 440 ng/mL JAK1, 11 ng/mL JAK2, 400 ng/mL JAK3, or 200 ng/mL TYK2, 100 nM substrate, and 1 mM ATP. The assay started with loading 2.5 μL of JAK1, JAK2, JAK3, or TYK2 diluted in the kinase reaction buffer to wells, followed by addition of an equal volume of 4× compounds for 15-min incubation at room temperature for pre-treatment. The enzymatic reaction was initiated by addition of 5 μL of a mixture of the substrate and ATP prepared in the kinase reaction buffer. After one hour reaction, 10 μL mixture of EDTA (final 10 mM) and terbium-labeled anti-pSTAT1 (pTyr701) antibody (final 2 nM) (Invitrogen, Cat. No. PV4844) prepared in TR-FRET antibody dilution buffer (Invitrogen, Cat. No. PV3574) was added to stop the enzymatic reaction and produce TR-FRET signals. After 30 minutes of incubation at room temperature, the plate was read in Tecan Infinite F200 Pro with the following settings: Excitation 340 nm (30)/Emission1 495 nm (10)/Emission2 520 nm (25). The TR-FRET values were dimensionless numbers that were calculated as the ratio of the acceptor ([…]) signal to the donor (Terbium) signal. Percent of inhibition was calculated as (100%−percentage of compound-treated/DMSO vehicle-treated). The dose-response curves were generated and the IC50s were calculated by nonlinear sigmoid curve fitting using GraphPad Prism.
(§4) In Table 1, A represents a value no greater than 500 nM, B represents a value greater than 500 nM but no greater than 1 μM, C represents a value greater than 1 μM but no greater than 5 μM, and D represents a value greater than 5 μM. In Table 2, A′ represents a ratio of greater than 8, B′ represents a ratio of no greater than 8 but no less than 4, C′ represents a ratio of no greater than 4 but no less than 2, and D′ represents a ratio of no greater than 2. The selectivity is expressed as a ratio of the IC50 values of a compound against two kinases to be compared.

[2] = tested on: human Janus kinase 3 (JAK3), recombinant catalytic domain; experiment: LanthaScreen TR-FRET enzymatic assay, JAK3; type: biochemical; details: ratio of IC50 against JAK3 over IC50 against JAK1
Description: as §1, §2, §3, §4

[3] = molecular target: human Janus kinase 3 (JAK3), recombinant catalytic domain (Homo sapiens (Human), UniProt P52333); experiment: LanthaScreen TR-FRET enzymatic assay, JAK3; type: biochemical; details: TR-FRET, 1 mM ATP, GFP-STAT1 substrate; read-out: Inhibitory Activity IC50 JAK3
Description: as §1, §2, §3, §4

JAK1 = JAK1 (Homo sapiens (Human), UniProt P23458); experiment: Cellular JAK1 assay: IL-6-mediated STAT3 phosphorylation in TF-1 cells; type: cell-based; details: IL-6 stimulation, STAT3 phosphorylation at Tyr705 (AlphaLISA), read-out: Inhibitory Activity Against JAK1 IC50
Description: The cellular potency of a compound on JAK1 or JAK2 inhibition is determined by measuring the cytokine-mediated phosphorylation of STAT proteins in TF-1 cells.
Human cytokines of IL-6 (R&D Systems, Cat. No. 206-IL-010/CF) and GM-CSF (R&D Systems, Cat. No. 215-GM-010/CF) are reconstituted at 10 μg/mL in D-PBS containing 0.1% BSA (Sigma, Cat. No. A8577) and human EPO (R&D Systems, Cat. No. 287-TC-500) at 500 U/mL in D-PBS containing 0.1% BSA. TF-1 cells (ATCC, CRL-2003) were grown in RPMI1640 (ATCC, Cat. No. 30-2001) supplemented with 2 ng/mL of recombinant human GM-CSF, 10% FBS (Gibco, Cat. No. 10437-028), and 100 U/mL penicillin-streptomycin (Gibco, Cat. No. 15140-122). The cells were maintained and propagated between 1×10^5 cells/mL to 7.5×10^5 cells/mL. Aliquots of the cells from early passages were preserved for liquid nitrogen storage. Frozen vials of the cells were thawed at 37° C. water bath. The cells were spun to remove freezing medium. The newly revived frozen cells were adapted in culture for 5-7 days before used for compound testing. The cells used in for compound testing were less than 20 subculture passages or 3 months in culture.
To test compounds, the TF-1 cells were harvested at a density of 3 to 7×10^5 cells/mL by centrifugation. After removing the culture medium, the resulting cell pellet was suspended and washed once by centrifugation with HBSS buffer (Gibco, Cat. No. 14025-092) containing 0.1% BSA. The cell pellet was resuspended in HBSS buffer at 7.5×10^6 cells/mL. Four micro-liters of the cells (3×10^4 cells in total) were added to each well of a white 384-well plate (Packard, Cat. No. 6005214).
The compounds were first diluted in dimethylsulfoxide (DMSO) (Sigma, Cat. No. D2650) to generate 9 3-fold diluted dosing concentrations in a 96-well polypropylene plate (Corning, Cat. No. 3365), followed by addition of HBSS buffer for another 125-fold dilution. To the cells, 2 μL of the diluted compounds were added and mixed by tapping the plate several times. The cells were incubated for 2 hrs of treatment. DMSO was used as a control and similarly diluted along and added to the cells.
To assay JAK1 inhibition, 2 μL of IL-6 diluted at 400 ng/mL (4×) in HBSS containing 0.1% BSA was added to the treated cells. The cells were then incubated for 30 min of cytokine treatment and lysed at the end by addition of 2 μL of 5×AlphaLISA SureFire Ultra lysis buffer from Perkin Elmer. The plate was agitated on a plate shaker for 10 min at room temperature. The cellular JAK1 activity was determined by measuring STAT3 phosphorylation at Tyr705 in lysates using the AlphaLISA SureFire Ultra kit (Perkin Elmer, Cat. No. ALSU-PST3-A500). A volume of 5 μL of acceptor mix and donor mix was added sequentially to lysates following the product protocol. The assay signals were recorded on EnVision plate reader (Perkin Elmer) with AlphaScreen optics setting.
The results are summarized in Table 3, where A represents a value no greater than 500 nM, B represents a value greater than 500 nM but no greater than 1 μM, C represents a value greater than 1 μM but no greater than 5 μM, and D represents a value greater than 5 μM.

[4] = molecular target: human tyrosine kinase 2 (TYK2), recombinant catalytic domain (Homo sapiens (Human), UniProt P29597); experiment: LanthaScreen TR-FRET enzymatic assay, TYK2; type: biochemical; details: TR-FRET, 1 mM ATP, GFP-STAT1 substrate; read-out: Inhibitory Activity IC50 TYK2
Description: as §1, §2, §3, §4

[5] = tested on: human tyrosine kinase 2 (TYK2), recombinant catalytic domain; experiment: LanthaScreen TR-FRET enzymatic assay, TYK2; type: biochemical; details: ratio of IC50 against TYK2 over IC50 against JAK1
Description: as §1, §2, §3, §4

[6] = molecular target: human Janus kinase 2 (JAK2), recombinant catalytic domain (Homo sapiens (Human), UniProt O60674); experiment: LanthaScreen TR-FRET enzymatic assay, JAK2; type: biochemical; details: for IC50: TR-FRET, 1 mM ATP, GFP-STAT1 substrate, read-out: Inhibitory Activity IC50 JAK2; for Selectivity JAK2/JAK1: ratio of IC50 against JAK2 over IC50 against JAK1
Description: as §1, §2, §3, §4

human Janus kinase 3 (JAK3), recombinant catalytic domain (Homo sapiens (Human), UniProt P52333), sequence (P52333 781-1124): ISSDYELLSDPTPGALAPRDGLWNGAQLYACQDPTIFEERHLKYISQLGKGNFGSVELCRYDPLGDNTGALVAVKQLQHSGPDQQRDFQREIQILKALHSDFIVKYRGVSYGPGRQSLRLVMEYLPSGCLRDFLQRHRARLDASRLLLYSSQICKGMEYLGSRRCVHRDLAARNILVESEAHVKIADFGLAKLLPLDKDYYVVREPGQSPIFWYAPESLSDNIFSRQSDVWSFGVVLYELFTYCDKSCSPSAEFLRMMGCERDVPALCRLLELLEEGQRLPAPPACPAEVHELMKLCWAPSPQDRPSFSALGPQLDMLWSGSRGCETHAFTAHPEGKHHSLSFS
human Janus kinase 1 (JAK1), recombinant catalytic domain, sequence (P23458 866-1154): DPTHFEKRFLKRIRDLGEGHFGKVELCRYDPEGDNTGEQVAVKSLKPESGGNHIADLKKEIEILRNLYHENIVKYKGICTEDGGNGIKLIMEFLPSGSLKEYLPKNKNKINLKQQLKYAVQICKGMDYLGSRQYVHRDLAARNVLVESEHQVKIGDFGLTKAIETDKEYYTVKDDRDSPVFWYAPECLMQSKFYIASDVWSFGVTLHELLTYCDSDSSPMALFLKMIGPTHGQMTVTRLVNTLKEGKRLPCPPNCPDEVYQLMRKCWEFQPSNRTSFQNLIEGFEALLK
human Janus kinase 2 (JAK2), recombinant catalytic domain, sequence (O60674 808-1132): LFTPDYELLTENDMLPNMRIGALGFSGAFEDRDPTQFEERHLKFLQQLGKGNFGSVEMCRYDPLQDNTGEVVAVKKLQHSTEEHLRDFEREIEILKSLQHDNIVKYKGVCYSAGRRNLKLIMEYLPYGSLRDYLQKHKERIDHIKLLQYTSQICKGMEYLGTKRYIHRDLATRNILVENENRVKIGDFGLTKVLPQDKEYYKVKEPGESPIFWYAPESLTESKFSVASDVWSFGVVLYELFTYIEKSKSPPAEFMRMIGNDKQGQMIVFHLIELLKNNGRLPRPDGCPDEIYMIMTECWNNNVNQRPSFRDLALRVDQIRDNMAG
JAK1, sequence (P23458 whole entry): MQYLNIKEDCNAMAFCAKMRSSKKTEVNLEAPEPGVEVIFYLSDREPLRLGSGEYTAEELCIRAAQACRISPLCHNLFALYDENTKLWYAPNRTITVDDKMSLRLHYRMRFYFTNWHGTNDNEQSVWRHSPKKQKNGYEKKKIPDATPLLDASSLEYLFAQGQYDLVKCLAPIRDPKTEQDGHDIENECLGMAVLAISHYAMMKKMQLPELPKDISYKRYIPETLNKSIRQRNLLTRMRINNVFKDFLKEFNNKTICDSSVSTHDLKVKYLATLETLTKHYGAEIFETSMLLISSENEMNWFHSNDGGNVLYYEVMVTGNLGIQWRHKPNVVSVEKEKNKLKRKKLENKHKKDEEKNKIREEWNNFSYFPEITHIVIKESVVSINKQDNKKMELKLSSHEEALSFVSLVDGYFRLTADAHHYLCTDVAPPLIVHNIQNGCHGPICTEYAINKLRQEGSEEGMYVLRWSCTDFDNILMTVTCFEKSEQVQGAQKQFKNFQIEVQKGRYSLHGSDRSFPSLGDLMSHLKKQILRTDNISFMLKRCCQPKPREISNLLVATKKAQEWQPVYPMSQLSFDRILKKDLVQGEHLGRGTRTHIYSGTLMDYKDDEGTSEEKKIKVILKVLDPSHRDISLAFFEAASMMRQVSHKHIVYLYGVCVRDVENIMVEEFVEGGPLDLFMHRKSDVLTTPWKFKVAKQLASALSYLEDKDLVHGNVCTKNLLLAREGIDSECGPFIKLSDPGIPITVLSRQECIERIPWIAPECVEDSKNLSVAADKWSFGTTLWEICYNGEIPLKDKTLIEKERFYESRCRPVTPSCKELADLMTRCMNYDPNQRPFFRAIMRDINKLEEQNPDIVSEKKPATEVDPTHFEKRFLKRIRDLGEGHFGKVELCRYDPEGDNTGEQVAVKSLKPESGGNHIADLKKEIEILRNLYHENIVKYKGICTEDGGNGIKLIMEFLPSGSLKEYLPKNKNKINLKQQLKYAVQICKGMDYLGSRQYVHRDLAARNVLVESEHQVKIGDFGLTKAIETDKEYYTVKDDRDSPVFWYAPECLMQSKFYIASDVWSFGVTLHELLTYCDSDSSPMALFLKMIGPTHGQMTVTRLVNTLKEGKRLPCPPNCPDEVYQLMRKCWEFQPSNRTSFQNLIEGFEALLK
human tyrosine kinase 2 (TYK2), recombinant catalytic domain (Homo sapiens (Human), UniProt P29597), sequence (P29597 833-1187): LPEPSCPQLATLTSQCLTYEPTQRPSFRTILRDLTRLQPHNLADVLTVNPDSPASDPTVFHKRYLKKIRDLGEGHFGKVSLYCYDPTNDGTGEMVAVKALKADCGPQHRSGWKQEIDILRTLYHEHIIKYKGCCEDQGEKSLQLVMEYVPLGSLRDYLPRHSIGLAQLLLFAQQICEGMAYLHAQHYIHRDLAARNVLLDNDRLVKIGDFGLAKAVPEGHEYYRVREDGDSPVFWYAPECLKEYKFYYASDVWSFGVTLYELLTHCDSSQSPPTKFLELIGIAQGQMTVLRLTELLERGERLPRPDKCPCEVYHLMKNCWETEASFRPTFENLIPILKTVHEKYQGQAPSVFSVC

O=C(Nc1cn2c(-c3ccc(CN4CCS(=O)(=O)CC4)cc3)cccc2n1)C1CC1 [Compound 1, N-(5-(4-((1,1-Dioxo-1-thiomorpholino)methyl)phenyl)imidazo[1,2-a]pyridin-2-yl) cyclopropanecarboxamide]
IC50 [1]: ≤ 500 nM | Selectivity JAK3/JAK1 [2]: A′ (A′ represents a ratio of greater than 8) | IC50 [3]: > 5000 nM | IC50 (JAK1): ≤ 500 nM | IC50 [4]: 1000 to 5000 nM | Selectivity TYK2/JAK1 [5]: A′ (A′ represents a ratio of greater than 8) | IC50 [6]: 1000 to 5000 nM | Selectivity JAK2/JAK1 [6]: A′ (A′ represents a ratio of greater than 8)

CC1(C)CN(C(=O)c2ccc(-c3cccc4nc(NC(=O)C5CC5)cn34)cc2)C1 [Compound 17]
IC50 [1]: ≤ 500 nM | Selectivity JAK3/JAK1 [2]: A′ (A′ represents a ratio of greater than 8) | IC50 [3]: > 5000 nM | IC50 (JAK1): ≤ 500 nM | IC50 [4]: 1000 to 5000 nM | Selectivity TYK2/JAK1 [5]: A′ (A′ represents a ratio of greater than 8) | IC50 [6]: 1000 to 5000 nM | Selectivity JAK2/JAK1 [6]: A′ (A′ represents a ratio of greater than 8)

CC1(C)CN(C(=O)c2ccc(-c3cccc4nc(NC(=O)C5CC5)cn34)cc2F)C1 [Compound 24]
IC50 [1]: ≤ 500 nM | Selectivity JAK3/JAK1 [2]: A′ (A′ represents a ratio of greater than 8) | IC50 [3]: > 5000 nM | IC50 (JAK1): ≤ 500 nM | IC50 [4]: 1000 to 5000 nM | Selectivity TYK2/JAK1 [5]: A′ (A′ represents a ratio of greater than 8) | IC50 [6]: 1000 to 5000 nM | Selectivity JAK2/JAK1 [6]: A′ (A′ represents a ratio of greater than 8)

N#CCc1ccc(-c2cccc3nc(NC(=O)C4CC4)cn23)cc1F [Compound 26]
IC50 [1]: ≤ 500 nM | Selectivity JAK3/JAK1 [2]: A′ (A′ represents a ratio of greater than 8) | IC50 [3]: > 5000 nM | IC50 (JAK1): ≤ 500 nM | IC50 [4]: > 5000 nM | Selectivity TYK2/JAK1 [5]: A′ (A′ represents a ratio of greater than 8) | IC50 [6]: > 5000 nM | Selectivity JAK2/JAK1 [6]: A′ (A′ represents a ratio of greater than 8)

O=C(Nc1cn2c(-c3ccc(CN4CCS(=O)(=O)CC4)c(F)c3)cccc2n1)C1CC1 [Compound 28]
IC50 [1]: ≤ 500 nM | Selectivity JAK3/JAK1 [2]: A′ (A′ represents a ratio of greater than 8) | IC50 [3]: > 5000 nM | IC50 (JAK1): ≤ 500 nM | IC50 [4]: 500 to 1000 nM | Selectivity TYK2/JAK1 [5]: A′ (A′ represents a ratio of greater than 8) | IC50 [6]: 500 to 1000 nM | Selectivity JAK2/JAK1 [6]: A′ (A′ represents a ratio of greater than 8)

O=C(Nc1cn2c(-c3ccc(NS(=O)(=O)C4CC4)cc3)cccc2n1)C1CC1 [Compound 30]
IC50 [1]: ≤ 500 nM | Selectivity JAK3/JAK1 [2]: A′ (A′ represents a ratio of greater than 8) | IC50 [3]: > 5000 nM | IC50 (JAK1): ≤ 500 nM | IC50 [4]: ≤ 500 nM | Selectivity TYK2/JAK1 [5]: B′ (B′ represents a ratio of no greater than 8 but no less than 4) | IC50 [6]: 500 to 1000 nM | Selectivity JAK2/JAK1 [6]: A′ (A′ represents a ratio of greater than 8)

Source: patent US10730875B2, “Substituted imidazo[1,2-A]pyridin-2-ylamine compounds, and pharmaceutical compositions and methods of use thereof” (JN Therapeutics, priority 2015, dated 2020)
